From PubChem BioAssay AID256 (DTP/NCI, 2004)
“And” between values parts separate entries of the source, which are not always exact repeats. Identical values can stand only once. Inconclusive results and toxic doses are left out. Rule for the calls: active = survival T/C of 150% or more; inactive = T/C below 125% in these data.

Tested on: CD2F1 mice, L1210 leukemia ip, survival T/C
Assay: NCI In Vivo Anticancer Drug Screen. Data for tumor model L1210 Leukemia (intraperitoneal) in CD2F1 (CDF1) mice
Conditions: endpoint: mean survival time, higher = longer survival
How it was run: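 Mice carrying a transplanted tumor received test compound or vehicle alone. The value is the measurement in the treated group divided by that in the vehicle-treated control group.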

[1] = dose: 100.0 mg/kg/injection, schedule: Q04DX003 (ip), vehicle: saline sonified
[2] = dose: 200.0 mg/kg/injection, schedule: Q04DX003 (ip), vehicle: saline sonified
[3] = dose: 400.0 mg/kg/injection, schedule: Q04DX003 (ip), vehicle: saline sonified

Measured: T/C

CCCCCCCCCCCC[N+]1(C)CCC[N+](C)(CCCCCCCCCCCC)CC1 (stereo unspecified)
inactive: dose: 18.7 mg/kg/injection, schedule: Q01DX001 (ip), vehicle: saline with Tween-80 116 % of control | dose: 37.5 mg/kg/injection, schedule: Q01DX001 (ip), vehicle: saline with Tween-80 98 % of control | dose: 75.0 mg/kg/injection, schedule: Q01DX001 (ip), vehicle: saline with Tween-80 113 % of control and 101 % of control

CC(C)(C)CC(C)(C)c1ccc(OCCOc2ccccc2NC(=O)c2ccc3ccccc3c2O)cc1
inactive: dose: 100.0 mg/kg/injection, schedule: Q01DX009 (ip), vehicle: saline with Tween-80 94 % of control | dose: 200.0 mg/kg/injection, schedule: Q01DX009 (ip), vehicle: saline with Tween-80 93 % of control | dose: 400.0 mg/kg/injection, schedule: Q01DX009 (ip), vehicle: saline with Tween-80 94 % of control

c1cc[c]([Pb]([c]2ccccc2)([c]2ccccc2)[n]2cccc2)cc1
inactive: dose: 6.25 mg/kg/injection, schedule: Q01DX009 (ip), vehicle: acetone 96 % of control | dose: 12.5 mg/kg/injection, schedule: Q01DX009 (ip), vehicle: acetone 88 % of control | dose: 12.5 mg/kg/injection, schedule: Q04DX003 (ip), vehicle: acetone 88 % of control | dose: 25.0 mg/kg/injection, schedule: Q04DX003 (ip), vehicle: acetone 93 % of control

COC(=O)C1C=C2c3cccc4[nH]cc(c34)CC2N(C)C1 (stereo unspecified)
inactive: [1] 97 % of control | [2] 97 % of control | [3] 109 % of control

CC1(C)N=C(N)N=C(N)N1c1ccc(CCCCc2cccc(S(=O)(=O)F)c2)c(Cl)c1
inactive: dose: 2.5 mg/kg/injection, schedule: Q01DX009 (ip), vehicle: saline with Tween-80 98 % of control | dose: 5.0 mg/kg/injection, schedule: Q01DX009 (ip), vehicle: saline with Tween-80 104 % of control | dose: 6.25 mg/kg/injection, schedule: Q04DX003 (ip), vehicle: saline sonified 89 % of control | dose: 10.0 mg/kg/injection, schedule: Q01DX009 (ip), vehicle: saline with Tween-80 103 % of control | dose: 12.5 mg/kg/injection, schedule: Q04DX003 (ip), vehicle: saline sonified 93 % of control | dose: 20.0 mg/kg/injection, schedule: Q01DX009 (ip), vehicle: saline with Tween-80 112 % of control | dose: 25.0 mg/kg/injection, schedule: Q04DX003 (ip), vehicle: saline sonified 96 % of control

CC[C@@]1(O)C[C@H](OC2CC(N(C)C)C(OC3CC(O)C(OC4CCC(=O)C(C)O4)C(C)O3)C(C)O2)c2c(cc3c(c2O)C(=O)c2c(O)cccc2C3=O)[C@H]1C(=O)OC (stereo partly specified)
inactive: dose: 0.12 mg/kg/injection, schedule: Q01DX009 (ip), vehicle: water 97 % of control | dose: 0.25 mg/kg/injection, schedule: Q01DX009 (ip), vehicle: water 92 % of control | dose: 0.5 mg/kg/injection, schedule: Q01DX009 (ip), vehicle: water 95 % of control | dose: 1.0 mg/kg/injection, schedule: Q01DX009 (ip), vehicle: water 90 % of control | dose: 2.0 mg/kg/injection, schedule: Q01DX009 (ip), vehicle: water 106 % of control | dose: 4.0 mg/kg/injection, schedule: Q01DX009 (ip), vehicle: water 108 % of control | dose: 8.0 mg/kg/injection, schedule: Q01DX009 (ip), vehicle: water 86 % of control | dose: 50.0 mg/kg/injection, schedule: Q04DX002 (ip), vehicle: saline with Tween-80 87 % of control

Cc1cc(Cc2c(C)c(C)c(Cc3cc(C)cc(C(C)(C)C)c3O)c(C)c2C)c(O)c(C(C)(C)C)c1
inactive: [1] 90 % of control | [2] 88 % of control | [3] 93 % of control
